Source: patent publication US11976055B1, “2-(1-(3-(dimethylamino)propyl)-4,5-diphenyl-1H-imidazol-2-yl)pyridin-3-ol as an antitumor and antimicrobial compound” (KING FAISAL UNIVERSITY, priority 2023, dated 2024)

Experiments:
[1] = test system: human prostate cancer cells (PC3); test: Cytotoxicity by SRB assay, PC3 cells; type: cell-based; conditions: androgen-independent metastatic human prostate cancer cells (PC3), 0.01 μM to 100 μM, 72 h
Experimental: (§1) The human prostate cancer cells (PC3) and human osteosarcoma cells (MG-63) were obtained from Nawah Scientific Inc. (Mokatam, Cairo, Egypt) and cultured in DMEM (Dulbecco's modified eagle's medium), Gibco, USA, supplemented with fetal bovine serum (FBS) at a concentration of 10% and 100 U/mL of penicillin and streptomycin (PS). The Cells were incubated at 37° C. in a humidified environment that contained 5% CO2. Cells were seeded in 96-well plates as aliquots of 100 μL cell suspension and incubated in a complete media for 24 h. afterward, cells were treated with 2-(1-(3-(Dimethylamino)propyl)-4,5-diphenyl-1H-imidazol-2-yl)pyridin-3-ol at diverse concentrations ranging from 0.01 μM to 100 μM for 72 h. […] Then, 150 μL of Tris pH 10.5 (10 mM) was added, and the absorbance was measured at 540 nm using a BMG LABTECH®-FLUOstar Omega microplate reader (Ortenberg, Germany). Half maximal inhibitory concentrations (IC50) values were calculated for each experiment using GraphPad Prism 6 software. […] The inhibition was calculated using the following equation: Inhibition %=100−Average Viability The anticancer activity of 2-(1-(3-(Dimethylamino)propyl)-4,5-diphenyl-1H-imidazol-2-yl)pyridin-3-ol was assessed against highly aggressive androgen-independent metastatic human prostate cancer cells (PC3) and osteosarcoma (MG-63) cells.

[2] = test system: human osteosarcoma cells (MG-63); test: Cytotoxicity by SRB assay, MG-63 cells; type: cell-based; conditions: osteosarcoma (MG-63) cells, 0.01 μM to 100 μM, 72 h
Experimental: as §1

melting point: 133 to 135 °C
SMILES: CN(C)CCCn1c(-c2ncccc2O)nc(-c2ccccc2)c1-c1ccccc1 [2-(1-(3-(Dimethylamino)propyl)-4,5-diphenyl-1H-imidazol-2-yl)pyridin-3-ol]
antiproliferative activity against PC3 cells [1]: excellent antiproliferative activities
antiproliferative activity against MG-63 cells [2]: excellent antiproliferative activities
